Where no end group is shown, it is not given here.

Assay [1] deals with indicated HLA alleles. Description: Stability of GATA3 neoORF neoepitopes with the HLA alleles (Example 9, Table 4). The format is binding, human. Here is the method: (§1) Multiple peptides containing the neoepitopes in Table 4 below were expressed or loaded onto antigen presenting cells (APCs). Mass spectrometry was then performed and the affinity of the neoepitopes for the indicated HLA alleles and stability of the neoepitopes with the HLA alleles was determined.

In assay [2] the target is indicated HLA alleles. Description: Affinity of GATA3 neoORF neoepitopes for the indicated HLA alleles (Example 9, Table 4). As to conditions: read-out: Observed MHC affinity. Type of assay: binding, human. As for the experimental part:
as §1

The target of assay [3] is indicated HLA alleles. Description: Affinity of mutant BTK neopeptides for indicated HLA alleles. Type of assay: binding, human. As for the experimental part: (§2) Multiple peptides containing neoepitopes in the table below were either expressed or loaded onto antigen presenting cells. Mass spectrometry was then performed and the affinity of the neoepitopes for indicated HLA alleles were determined, and the stability of the neoepitopes with the HLA alleles were determined.

Assay [4] concerns indicated HLA alleles. The assay is described as follows: Stability of mutant BTK neopeptides with the HLA alleles. The format is binding, human. Here is the method:
as §2

For assay [5], the target named is indicated HLA alleles. Description: Affinity of mutant EGFR neopeptides for indicated HLA alleles. The format is binding, human.
Assay [6] deals with indicated HLA alleles. The assay is described as follows: Stability of mutant EGFR neopeptides with the HLA alleles. Type of assay: binding, human. As for the experimental part: as §2
For assay [7], the target named is indicated HLA alleles (Homo sapiens, UniProt P01889). The assay is described as follows: Affinity of GATA3 neoORF neoepitopes for the indicated HLA alleles (Example 9, Table 4). Type of assay: binding. As for the experimental part:
as §1

The target in the next assay is HLA-A02:01 (Homo sapiens, UniProt P04439, D140Y/D185E/D98H/E176V/E277Q/G131W/G231S/I119V/I121R/I166T/I218V/L300P/L318F/N151K/N90K/P208A/P217A/Q86G/Q94H/R138H/R169H/T345S). The assay is described as follows: Detection of GATA3 neoORF peptides by mass spectrometry (Example 8). Type of assay: cell-based. As to conditions: 293T cells transduced with GATA3 neoORF lentiviral vector, expressing HLA-A02:01; peptides eluted from HLA-peptide complexes, MS/MS.

Assay [8] deals with antigen specific CD8+ T cells. Description: Antigen specific CD8+ T cell induction monitored with pMHC multimers (Example 10). As to conditions: PBMCs from 3 different healthy donors. Type of assay: cell-based, human. As for the experimental part:
PBMC samples from a human donor were used to perform antigen specific T cell induction. CD8^+ T cell inductions were analyzed after manufacturing T cells. Cell samples can be taken out at different time points for analysis. pMIHC multimers were used to monitor the fraction of antigen specific CD8^+ T cells in the induction cultures. […] FIG. 9A depicts an exemplary result of a T cell response assay using PBMCs from 6 different healthy donors showing the fraction of antigen specific CD8^+ T cells that responded to […] peptide analyzed by flow cytometry after stimulation or induction. […] FIG. 9B depicts an exemplary result of a T cell response assay using PBMCs from a healthy donor showing fraction of antigen specific CD8^+ T cells that responded to […] peptide analyzed by flow cytometry after stimulation or induction.

On to AIQPVLWTT, for which the “Observed MHC stability” value with indicated HLA alleles [1] (Allele A02.01) amounted to 1.5 h. Moreover, at indicated HLA alleles [2] (Allele A02.01), the Kd was 0.008 µM.
On the same counts, the results for ALQPLQPHA are 1.5 h and 0.604 µM.
Regarding EYMANGSLL, on indicated HLA alleles [3] (BTK, C481S, HLA A24.02), the Kd came out at 0.00496 µM. Further, the “Stability (1/2 hr)” value in the assay with indicated HLA alleles [4] (BTK, C481S, HLA A24.02) worked out at 5.716 h.
As for IMQLMPFGC, the Kd at indicated HLA alleles [5] (EGFR_T790M, HLA A02.01) amounted to 1.21 µM. Besides, the “Stability (1/2 hr)” value in the assay with indicated HLA alleles [6] (EGFR_T790M, HLA A02.01) amounted to 0.3701 h.
On the same counts, the results for LIMQLMPFG are 3.34 µM and 0 h.
Consider LTSTVQLIM, for which the Kd on indicated HLA alleles [5] (EGFR T790M, HLA A01.01) turned out to be 2.89 µM. Also, the “Stability (1/2 hr)” value with indicated HLA alleles [6] (EGFR T790M, HLA A01.01) is 0.1037 h.
MFLKAESKI: the “Observed MHC stability” value in the assay with indicated HLA alleles [1] (Allele A24:02) worked out at 0.2 h. The Kd on indicated HLA alleles [2] (Allele A24:02) is 0.332 µM.
As to QPVLWTTPPL, the “Observed MHC stability” value in the assay on indicated HLA alleles [1] (Allele B07:02) came out at 1.4 h. The sequence also showed a Kd at indicated HLA alleles [7] of 0.109 µM.
Turning to STVQLIMQL, the Kd on indicated HLA alleles [5] (EGFR_T790M, HLA A02.01) is 7.26 µM. The “Stability (1/2 hr)” value with indicated HLA alleles [6] (EGFR_T790M, HLA A02.01) came out at 0 h.
VLPEPHLAL [VLPEPHLAL]: the “detected by mass spectrometry” value at HLA-A02:01 is “detected”. For the same sequence, the “healthy donors showing an increase in the fraction of antigen specific CD8+ T cells” value in assay [8] is on record as “one of the three donors”. For the same sequence, the “Observed MHC stability” value in the assay on indicated HLA alleles [1] (Allele A02.01) came to 1.1 h. For the same sequence, the Kd on indicated HLA alleles [2] (Allele A02.01) is 0.016 µM.
Regarding YMANGSLLN, the Kd on indicated HLA alleles [3] (BTK_C481S, HLA A02.01) was 4 µM. Besides, in the assay with indicated HLA alleles [4] (BTK_C481S, HLA A02.01), the “Stability (1/2 hr)” value amounted to 0 h.
